Reference: patent US11352607B2, “Genomic engineering of pluripotent cells” (Fate Therapeutics, Inc., priority 2015, dated 2022)

How the values were obtained:
[1] = test system: iCasp9-integrated iPSCs; assay: AP1903-induced cell death of iCasp9-targeted hiPSCs (7AAD staining, flow cytometry); assay type: cell-based, human; conditions: 24 hrs
Protocol: The sorted GFP (neg), GFP (low) and GFP (hi) populations were expanded, and then were subjected to AP1903 treatment (10 nM or 100 nM), or DMSO as control, for 24 hrs. The treated cells were harvested and stained with 7AAD and analyzed by flow cytometry. The 7AAD negative cells (presumably live cells) percentage were plotted for each treatment.
Expanded puro-resistant iPSCs were then subjected to AP1903 (or DMSO control) treatment for 24 hrs. The treated cells were harvested and stained with 7AAD and analyzed by flow cytometry. The 7AAD negative cells, i.e., live cells, percentage were plotted for each treatment.

[2] = test system: 293T cells; assay: AP1903-induced cell death of iCasp9-targeted 293T cells (7AAD); assay type: cell-based; conditions: 10 nM or 120 nM, 24 hrs; 293T cells with CMV-driven iCasp9 at AAVS1
Text: The chemical inducer of dimerization (CID; AP1903) was purchased from Medchemexpress (Monmouth Junction, N.J.). Twenty-four hours after CID exposure, the cells were harvested and stained with 7-amino actinomycin D (7-AAD) according to the manufacturer's instruction (BD Biosciences). The percentage of 7-AAD positive cells were quantified as dead cells by flow cytometry (Guava, EMD Millipore, Billerica, Mass.) and analyzed with flowjo software.
A donor construct encompassing CMV-driven iCasp9 (AAVS1-G1.0) was designed to target the AAVS1 locus (FIG. 1A) and to integrate the Casp9 suicide gene to 293T cells. The donor construct also comprise GFP and puromycin genes, the expression of which are driven by AAVS1 endogenous promoter once the targeted insertion takes place (FIG. 1A). 293T cells were transfected with ZFNs specific to AAVS1 locus and the donor construct AAVS1-G1.0. Three days after transfection, the puromycin selection was started and continued for 12 days. The puro-selected population was analyzed by flow cytometry for GFP expression, and a range of GFP expression levels were observed. It was observed that about 82% of the puro-selected cell population expressed GFP (FIG. 1B). […] The treated cells were then harvested and stained with 7AAD, which selectively stains membrane-compromised dying cells, and analyzed by flow cytometry. […]

[3] = test system: CAG-C38 iCasp9 iPSC clone with sr39TK at H11 locus; assay: Dual suicide gene safe guard system: AP1903 and GCV treatment in vitro; assay type: cell-based, human; conditions: 10 nM AP1903 two days; 25 μg/mL GCV nine days
Text: In addition to CAG-iCasp9 integrated into AAVS1 locus, CAG-sr39TK was integrated into H11 safe harbor in CAG-C38 clonal iPSC using targeted insertion method described herein.

## CC[C@H](C(=O)N1CCCC[C@H]1C(=O)O[C@H](CCc1ccc(OC)c(OC)c1)c1cccc(OCC(=O)NCCNC(=O)COc2cccc([C@@H](CCc3ccc(OC)c(OC)c3)OC(=O)[C@@H]3CCCCN3C(=O)[C@@H](CC)c3cc(OC)c(OC)c(OC)c3)c2)c1)c1cc(OC)c(OC)c(OC)c1 [AP1903]
[1]; 10 nM or 100 nM, hiPSCs with CMV-driven iCasp9, GFP (neg), GFP (low), GFP (hi) populations
  cell death mediated by AP1903: not detected
[1]; hiPSCs with iCasp9 under endogenous AAVS1 promoter
  cell death mediated by AP1903: not detected
[2]
  cell death post AP1903 treatment: Significant cell death was detected
[3]
  inducible killing of CAG-C38 iCasp9 clone with sr39TK at H11: inducible killing of most cells but rare cells remained

## Nc1nc(O)c2ncn(COC(CO)CO)c2n1 [GCV, Ganciclovir]
[3]
  inducible killing of CAG-C38 iCasp9 clone with sr39TK at H11: expanded GCV-refractory cells
